Reference: PMC9848270, “Synthesis and biological assessment of indole derivatives containing penta-heterocycles scaffold as novel anticancer agents towards A549 and K562 cells” (Journal of Enzyme Inhibition and Medicinal Chemistry, 2023)
Like-named read-outs stand apart in the source and are kept apart here.

How the values were obtained:
[1] = test system: human prostate cancer cells (PC-3); test: MTT antiproliferative assay, PC-3; assay type: cell-based; conditions: Homo sapiens; for IC50: 48 h, MTT assay, read-out: In vitro cytotoxicity IC50, PC-3; for inhibition at 10 µM: read-out: Inhibition rate, PC-3
Experimental: (§1) A549, PC-3, HepG2 and K562 cells were purchased from the Kunming cell bank of the Chinese academy of sciences. All cell lines were cultured in DMEM or RPMI 1640 complete medium. Logarithmic growth cells were cultured in 96-well plates at a concentration of 10^4 cells per well and pre-cultured for 24 h before adding test compounds. The MTT test with 5-Fluorouracil and Gefitinib as reference compounds were used to evaluate antiproliferative activity of target compounds in four human cancer line cells. For the estimation of the inhibition concentration (IC50), the Graph Pad Prism (GraphPad Software, San Diego, CA) was used.

[2] = test system: human liver cancer cells (HepG2); test: MTT antiproliferative assay, HepG2; assay type: cell-based; conditions: for inhibition at 10 µM: read-out: Inhibition rate, HepG2; for IC50: MTT assay, 48 h, read-out: In vitro cytotoxicity IC50, HepG2
Experimental: as §1

[3] = MTT cytotoxicity, normal cell line HEK293; assay type: cell-based, human; conditions: human; for IC50 at 48 h: HEK293 cells (normal cell line), MTT assay, normal cell line, CC50, read-out: In vitro cytotoxicity IC50, HEK293
[4] = test system: normal cell line (HEK293); test: MTT cytotoxicity, normal cell line HEK293; assay type: cell-based, human; conditions: Homo sapiens, HEK293; 10 μM; read-out: Inhibition rate, HEK293
[5] = test system: human non-small cell lung cancer cells (A549); test: MTT antiproliferative assay, A549; assay type: cell-based; conditions: for inhibition at 10 µM: A549, 10 μM, read-out: Inhibition rate, A549
Experimental: as §1

[6] = test system: human chronic myeloid leukaemia cells (K562); test: MTT antiproliferative assay, K562; assay type: cell-based; conditions: for inhibition at 10 µM: K562, 10 μM, read-out: Inhibition rate, K562
Experimental: as §1

[7] = A549, 48 h, MTT assay, 48 h, read-out: In vitro cytotoxicity IC50, A549
[8] = K562, 48 h, MTT assay, 48 h, read-out: In vitro cytotoxicity IC50, K562

| Compound | IC50 [1] | inhibition at 10 µM [1] | inhibition at 10 µM [2] | IC50 [2] | IC50 at 48 h [3] | CC50 ([3]; HEK293 cells, Table 2, unit inferred, repeats Table 1) | inhibition at 10 µM [4] | melting point | inhibition at 10 µM [5] | IC50 [5, 7] | IC50 ([5]; A549, Table 2, unit inferred, repeats Table 1, read-out: A549 (IC50, Table 2)) | inhibition at 10 µM [6] | IC50 [6, 8] | IC50 ([6]; K562, Table 2, unit inferred, repeats Table 1, read-out: K562 (IC50, Table 2)) |
| --- | --- | --- | --- | --- | --- | --- | --- | --- | --- | --- | --- | --- | --- | --- |
| Nn1c(SCC(=O)Nc2cc(-c3c[nH]c4ccccc34)n[nH]2)nnc1-c1cccnc1 [Compound 11h, N-(3-(1H-indol-3-yl)-1H-pyrazol-5-yl)-2-((4-amino-5-(pyridine-3-yl)-4H-1,2,4-triazol-3-yl)thio)acetamide] | 3.16 ± 0.23 µM | 65.1 ± 0.595% | 93.6 ± 0.215% | 1.23 ± 0.06 µM | 1.79 ± 0.63 µM | 1.79 ± 0.63 µM | 77.8 ± 4.16% | 195 to 197 °C | 97.8 ± 0.354% | 1.15 ± 0.26 µM | 1.15 ± 0.26 µM | 98.6 ± 0.417% | 0.06 µM | 0.0639 ± 0.02 µM |
| Nn1c(SCC(=O)Nc2cc(-c3c[nH]c4ccccc34)n[nH]2)nnc1-c1ccccc1F [Compound 11g, N-(3-(1H-indol-3-yl)-1H-pyrazol-5-yl)-2-((4-amino-5–(2-fluorophenyl)-4H-1,2,4-triazol-3-yl)thio)acetamide] | 6.52 ± 1.85 µM | 72.2 ± 13.2% | 74.9 ± 25.5% | 9.65 ± 5.87 µM | 5.05 ± 1.17 µM |  | 65.4 ± 6.38% | 226 to 227 °C | 67.5 ± 1.65% | 10.1 ± 2.37 µM |  | 98.5 ± 0.653% | 3.78 ± 0.54 µM |  |
| O=C(CSc1nnc(-c2cccnc2)s1)Nc1cc(-c2c[nH]c3ccccc23)n[nH]1 [Compound 10h, N-(3-(1H-indol-3-yl)-1H-pyrazol-5-yl)-2-((5-(pyridine-3-yl)-1,3,4-thiadiazol-2-yl)thio)acetamide] | 16.7 ± 4.86 µM | 28.9 ± 2.71% | 63.2 ± 5.32% | 5.58 ± 2.69 µM | 21.9 ± 1.31 µM |  | 18.7 ± 8.52% | 233 to 235 °C | 43.5 ± 1.7% | 7.96 ± 1.39 µM |  | 64.3 ± 8.28% | 6.93 ± 1.63 µM |  |
| Nn1c(SCC(=O)Nc2cc(-c3c[nH]c4ccccc34)n[nH]2)nnc1-c1ccccc1O [Compound 11q, N-(3-(1H-indol-3-yl)-1H-pyrazol-5-yl)-2-((4-amino-5–(2-hydroxyphenyl)-4H-1,2,4-triazol-3-yl)thio)acetamide] | 2.89 ± 0.15 µM | 86.3 ± 0.332% | 84.7 ± 11.4% | 8.23 ± 7.58 µM | 2.66 ± 1.29 µM |  | 99.3 ± 0.02% | 263 to 266 °C | 89.4 ± 2.21% | 4.14 ± 1.71 µM |  | 99.2 ± 1.2% | 2.34 ± 0.34 µM |  |
| Nn1c(SCC(=O)Nc2cc(-c3c[nH]c4ccccc34)n[nH]2)nnc1-c1ccc(Br)cc1 [Compound 11m, N-(3-(1H-indol-3-yl)-1H-pyrazol-5-yl)-2-((4-amino-5–(4-bromophenyl)-4H-1,2,4-triazol-3-yl)thio)acetamide] | 21.3 ± 2.75 µM | 32.8 ± 6.5% | 60.9 ± 7.02% | 10.7 ± 5.21 µM | 5.81 ± 0.88 µM |  | 54.2 ± 5.97% | 270 to 272 °C | 71.7 ± 5.61% | 5.81 ± 0.69 µM |  | 98.5 ± 0.434% | 2.57 ± 0.43 µM |  |
| Nn1c(SCC(=O)Nc2cc(-c3c[nH]c4ccccc34)n[nH]2)nnc1-c1ccccc1 [Compound 11k, N-(3-(1H-indol-3-yl)-1H-pyrazol-5-yl)-2-((4-amino-5-phenyl-4H-1,2,4-triazol-3-yl)thio)acetamide] | 25.4 ± 2.77 µM | 23.1 ± 3.99% | 11.1 ± 0.757% | 73.1 ± 8.07 µM | 23.6 ± 4.14 µM |  | 0.497 ± 5.03% | > 300 °C | 23.2 ± 0.539% | 23.9 ± 3.08 µM |  | 19.2 ± 3.55% | 39.7 ± 7.96 µM |  |
| Nn1c(SCC(=O)Nc2cc(-c3c[nH]c4ccccc34)n[nH]2)nnc1-c1ccc[nH]1 [Compound 11r, N-(3-(1H-indol-3–yl)-1H-pyrazol-5-yl)-2-((4-amino-5-(1H-pyrrol-2-yl)-4H-1,2,4-triazol-3-yl)thio)acetamide] | 2.73 ± 1.05 µM | 79.4 ± 9.21% | 96.5 ± 1.22% | 1.75 ± 0.07 µM | 1.53 ± 0.93 µM |  | 72.3 ± 5.76% | 241 to 243 °C | 94.2 ± 1.81% | 2.72 ± 0.26 µM |  | 95 ± 2.52% | 1.84 ± 0.66 µM |  |
| Nn1c(SCC(=O)Nc2cc(-c3c[nH]c4ccccc34)n[nH]2)nnc1-c1ccccc1Br [Compound 11c, N-(3-(1H-indol-3-yl)-1H-pyrazol-5-yl)-2-((4-amino-5–(2-bromophenyl)-4H-1,2,4-triazol-3-yl)thio)acetamide] | 60.8 ± 4.73 µM | 12.3 ± 2.04% | 10.4 ± 1.73% | 74.7 ± 13.4 µM | 75.4 ± 2.35 µM |  | 1.73 ± 2.31% | 194 to 195 °C | 10.5 ± 0.521% | 67.7 ± 1.35 µM |  | 14.9 ± 1.32% | 43.4 ± 1.96 µM |  |
| Nn1c(SCC(=O)Nc2cc(-c3c[nH]c4ccccc34)n[nH]2)nnc1-c1cc(Cl)cc(Cl)c1 [Compound 11a, N-(3-(1H-indol-3-yl)-1H-pyrazol-5-yl)-2-((4-amino-5–(3,5-dichlorophenyl)-4H-1,2,4-triazol-3-yl)thio)acetamide] | 7.66 ± 1.5 µM | 79 ± 3.97% | 19.3 ± 4.13% | 40.3 ± 7.83 µM | 16.8 ± 5.56 µM |  | 58.5 ± 2.72% | 258 to 260 °C | 32.9 ± 3.84% | 27.3 ± 3.47 µM |  | 95.6 ± 1.68% | 3.64 ± 0.08 µM |  |
| Nn1c(SCC(=O)Nc2cc(-c3c[nH]c4ccccc34)n[nH]2)nnc1-c1ccccc1Cl [Compound 11j, N-(3-(1H-indol-3-yl)-1H-pyrazol-5-yl)-2-((4-amino-5–(2-chlorophenyl)-4H-1,2,4-triazol-3-yl)thio)acetamide] | 34.4 ± 2.57 µM | 17.8 ± 2.85% | 14.4 ± 0.686% | 50.6 ± 4.69 µM | 63 ± 0.87 µM |  | 10.9 ± 7.59% | 136 to 138 °C | 13.7 ± 1.49% | 56.8 ± 5.27 µM |  | 14.3 ± 0.525% | 42.4 ± 3.6 µM |  |
| Nn1c(Cc2ccc(Cl)cc2)nnc1SCC(=O)Nc1cc(-c2c[nH]c3ccccc23)n[nH]1 [Compound 11d, N-(3-(1H-indol-3-yl)-1H-pyrazol-5-yl)-2-((4-amino-5–(4-chlorobenzyl)-4H-1,2,4-triazol-3-yl)thio)acetamide] | 8.42 ± 0.56 µM | 56.2 ± 9.24% | 16.3 ± 2.1% | 49.6 ± 10.2 µM | 11.6 ± 0.87 µM |  | 63.4 ± 7.49% | 240 to 241 °C | 87.4 ± 12.5% | 4.79 ± 0.21 µM |  | 95.4 ± 0.809% | 3.51 ± 1.05 µM |  |
